This assay deals with EMT6 mouse breast carcinoma syngeneic tumor. The assay can be described thus: Study 3: EMT6 orthotopic (mammary fat pad) syngeneic tumor model, time-to-progression analysis. It is filed as in vivo, female BALB/c mice. As to the method:
Study 3: EMT6 is a mouse breast carcinoma cell line. EMT6 mouse syngeneic tumor model was generated by orthotopic inoculation with 1.0×10^6 EMT6 cells (cell suspension) in seven to eight week old female BALB/c mice (Envigo Corp., Indianapolis, IN) in the mammary fat pad. When the mean tumor volume reached approximately 110 mm^3, the animals were randomized into one vehicle control and eight treatment groups (n=8/group). Mice were then treated with Compound No. 14, anti-mouse PD-1 (anti-mPD-1) (clone RMP1-14), and/or three fraction doses of 8 Gy of Radiation (8 Gy×3), or the respective control agents (PBS, isotype control antibody, and/or mock radiation) in the following combinations over an 11-day period. • Group 1: vehicle (PBS)+isotype control+mock radiation • Group 2: Compound No. 14 (1 mg/kg)+isotype control+mock radiation • Group 3: Compound No. 14 (0.25 mg/kg)+isotype control+mock radiation • Group 4: vehicle+anti-mPD-1+mock radiation • Group 5: vehicle+isotype control+radiation (8 Gy×3) • Group 6: Compound No. 14 (1 mg/kg)+isotype control+radiation (8 Gy×3) • Group 7: vehicle+anti-mPD-1+radiation (8 Gy×3) • Group 8: Compound No. 14 (1 mg/kg)+anti-mPD-1+radiation (8 Gy×3) • Group 9: Compound No. 14 (0.25 mg/kg)+anti-mPD-1+radiation (8 Gy×3)
Tumor growth and body weight were measured three times per week during the treatment and post-treatment periods. Mice were humanely euthanized once they had reached their humane endpoint. Mice with complete regressions were evaluated until day 74 or day 108.
Study 3: A 0.1 mg/mL stock solution of Compound No. 14 was formulated in PBS and administered IV based on exact animal body weight on each day of treatment, using a dosing volume of 10 mL/kg body weight. Final doses received were 0.25 mg/kg or 1.0 mg/kg. Compound No. 14 was administered on a Q3D schedule for 3 doses (Days 12, 15 and 18) in single agent treatment group and in combination treatment groups. Dose formulation of Compound No. 14 was prepared once and utilized for all three dosing days.
Formulated anti-mPD-1 and isotype control were stored at 4 degree Celsius until subsequent dosing on Days 15 and 18. Anti-mPD-1 or isotype control was administered concurrent with Compound No. 14 or vehicle control on a Q3D schedule for 3 doses (Days 12, 15 and 18) in single agent treatment groups and in combination treatment groups.
Radiation treatment for Study 3 was performed using focal beam radiation with volumetric image guidance from computed tomography scans SARRP (Small Animal Radiation Research Platform) irradiator (Xstrahl Inc. Suwanee, Ga). Animals received 2.42 Gy/min of radiation and approximately 3.3 min was needed to reach 8 Gy dose delivery. Animals received 8 Gy radiation on days 8, 9 and 10, with the last radiation dose given two days prior to the initiation of dosing with Compound No. 14 and/or anti-mPD-1 or relevant controls on Day 12. Animals were anesthetized during imaging and radiation treatment using 1-2% Isoflurane. For repeated daily radiation treatments, the same treatment plan was applied and adjusted for changes in animal positioning or target alteration over time.
Tumors were measured three times weekly using vernier calipers. Tumor volumes were calculated using standard equation: V=W^2×L/2, where V=volume, W=width, and L=length for the tumor. When mean tumor volumes reached approximately 60 mm^3 for Study 1, 75 mm^3 for Study 2, and 110 mm^3 for Study 3, mice were randomized into eight groups (n=10/group) in Studies 1 and 2, and nine groups (n=8/group) in Study 3. These groups were then dosed with vehicle (PBS), Compound No. 14, Radiation, anti-mPD-1 or isotype control, or combinations of these agents as described in Tables 1a, 2a, and 3a. Tumor size and body weight were measured three times a week for the duration of each study. […]

The structures appear in SMILES notation.

Consider `Nc1ncnc2c1ncn2[C@@H]1O[C@@H]2COP(=O)(S)O[C@@H]3[C@H](O)[C@@H](COP(=O)(S)O[C@H]2[C@H]1F)O[C@H]3n1cc(F)c2c(=O)[nH]cnc21` (stereo partly shown) [Compound No. 14], for which the “Synergy Hazard Ratio (Weibull)” value (Combination Gr 6 [Compound No. 14 (1 mg/kg) + isotype control + radiation (8 Gy × 3)] vs Gr 2 and Gr 5) is recorded as 0.00194. The “Mice remaining on study beyond day 53” value (Gr 2: Compound No. 14 (1 mg/kg) + isotype control + mock radiation) was “no mice”. Besides, the “HR (Weibull), time to progression, pairwise comparison to vehicle group (Gr 1)” value by setting is: (Gr 2: Compound No. 14 (1 mg/kg) IV Q3D×3 + isotype control + mock radiation, TTP = tumor volume reaching 1000 mm^3) 0.485; (Gr 3: Compound No. 14 (0.25 mg/kg) IV Q3D×3 + isotype control + mock radiation) 0.37; (Gr 6: Compound No. 14 (1 mg/kg) + isotype control + radiation (8 Gy×3)) 0.00091. Besides, the “Mice remaining on study as tumor-free survivors at end of study (Day 108)” value (Group 6: Compound No. 14 (1 mg/kg) + isotype control + 8 Gy×3 Radiation, n=8/group) was 5 mice. Besides, for the setting “Group 6: Compound No. 14 (1 mg/kg) and 8 Gy×3 Radiation with isotype control”, the “Combination effect on TTP (synergy, in words)” value is given as “Statistically significant synergy”.

(Values after patent US20240335464A1, “ADMINISTRATION OF STING AGONIST, CHECKPOINT INHIBITORS, AND RADIATION” (Takeda Pharmaceutical Company Limited, priority 2020, published 2024).)
